The values that follow are results of earlier work, collected in US20180353175A1, “Surgical Fastener with Broad Spectrum MMP Inhibitors” (Ethicon LLC, priority 2017, published 2018).

Among the targets are MMP14 (Homo sapiens, UniProt P50281); MMP3 (Homo sapiens, UniProt P08254); MMP8 (Homo sapiens, UniProt P22894); MMP13 (Homo sapiens, UniProt P45452); MMP12 (Homo sapiens, UniProt P39900).
Another data set addresses MMP9 (Homo sapiens, UniProt P14780). The conditions noted are these: for IC50: read-out: IC50 MMP9.
For another data set, the target named is T1, MMP2 (Homo sapiens, UniProt P08253).
T1 sequence (P08253 110-660): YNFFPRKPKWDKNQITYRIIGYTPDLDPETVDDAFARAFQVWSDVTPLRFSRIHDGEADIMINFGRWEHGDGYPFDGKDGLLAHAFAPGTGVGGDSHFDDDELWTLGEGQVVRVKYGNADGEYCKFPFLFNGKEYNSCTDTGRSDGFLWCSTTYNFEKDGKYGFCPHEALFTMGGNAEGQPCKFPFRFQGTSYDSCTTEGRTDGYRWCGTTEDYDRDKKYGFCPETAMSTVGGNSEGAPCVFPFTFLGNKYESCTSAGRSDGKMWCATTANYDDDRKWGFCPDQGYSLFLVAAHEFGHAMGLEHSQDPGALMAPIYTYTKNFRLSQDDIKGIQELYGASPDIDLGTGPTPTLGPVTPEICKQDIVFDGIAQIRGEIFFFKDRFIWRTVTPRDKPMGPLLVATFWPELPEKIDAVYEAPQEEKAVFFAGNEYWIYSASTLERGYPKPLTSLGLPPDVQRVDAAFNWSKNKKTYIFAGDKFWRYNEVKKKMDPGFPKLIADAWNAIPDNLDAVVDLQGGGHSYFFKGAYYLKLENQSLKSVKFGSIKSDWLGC
The conditions noted are these: for IC50: read-out: IC50 MMP2.

A further data set deals with T2, MMP1 (Homo sapiens, UniProt P03956).
T2 sequence (P03956 100-469): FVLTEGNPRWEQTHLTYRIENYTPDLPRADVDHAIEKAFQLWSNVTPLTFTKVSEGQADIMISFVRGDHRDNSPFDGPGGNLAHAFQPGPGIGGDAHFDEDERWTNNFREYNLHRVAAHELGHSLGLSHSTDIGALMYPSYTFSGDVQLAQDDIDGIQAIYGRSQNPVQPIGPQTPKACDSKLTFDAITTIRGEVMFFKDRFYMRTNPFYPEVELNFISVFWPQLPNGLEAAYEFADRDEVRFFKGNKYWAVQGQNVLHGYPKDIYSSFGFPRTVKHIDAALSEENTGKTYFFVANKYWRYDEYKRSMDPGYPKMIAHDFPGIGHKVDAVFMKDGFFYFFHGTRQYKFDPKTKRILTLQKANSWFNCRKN

The target of the next data set is T3, MMP7 (Homo sapiens, UniProt P09237).
T3 sequence (P09237 95-267): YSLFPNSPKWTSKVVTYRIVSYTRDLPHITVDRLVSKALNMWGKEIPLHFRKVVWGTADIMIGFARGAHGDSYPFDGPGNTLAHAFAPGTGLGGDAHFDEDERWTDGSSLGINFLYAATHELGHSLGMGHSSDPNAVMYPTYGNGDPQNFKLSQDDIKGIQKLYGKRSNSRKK
The following applies: for IC50: read-out: IC50 MMP7.

For data set [1], the target named is TACE (TNF-α-converting enzyme) (Homo sapiens, UniProt P78536).
Sequence of TACE (TNF-α-converting enzyme) (P78536 215-824, species assumed): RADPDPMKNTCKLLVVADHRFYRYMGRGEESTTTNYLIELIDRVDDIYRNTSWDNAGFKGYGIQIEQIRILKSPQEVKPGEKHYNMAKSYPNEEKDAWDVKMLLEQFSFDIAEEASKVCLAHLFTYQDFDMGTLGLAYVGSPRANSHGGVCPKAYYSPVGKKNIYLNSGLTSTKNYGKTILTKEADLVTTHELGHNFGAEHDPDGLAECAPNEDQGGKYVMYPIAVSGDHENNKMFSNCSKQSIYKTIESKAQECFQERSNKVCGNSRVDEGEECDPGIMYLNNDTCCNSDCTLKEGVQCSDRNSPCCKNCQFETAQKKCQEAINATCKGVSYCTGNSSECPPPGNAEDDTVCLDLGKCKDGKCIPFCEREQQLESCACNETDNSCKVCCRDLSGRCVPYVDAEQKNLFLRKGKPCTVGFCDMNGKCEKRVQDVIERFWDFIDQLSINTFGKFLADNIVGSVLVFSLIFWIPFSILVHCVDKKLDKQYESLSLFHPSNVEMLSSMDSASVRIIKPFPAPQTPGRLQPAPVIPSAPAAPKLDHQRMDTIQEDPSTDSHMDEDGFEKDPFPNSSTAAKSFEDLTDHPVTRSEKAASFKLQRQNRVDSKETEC
Where [2] appears, read: read-out: IC50 MMP8 (converted).

Where two headings read alike, the source gives them in different places. Square brackets hold non-standard residues; d marks the D form. Peptide text beside a SMILES is read from it. * marks the point of attachment. 4Abz = Nc1ccc(C(=O)O)cc1; NHOH = ON* Bounds are passed on as bounds.

Sequence of MMP3 (P08254 100-477, species assumed): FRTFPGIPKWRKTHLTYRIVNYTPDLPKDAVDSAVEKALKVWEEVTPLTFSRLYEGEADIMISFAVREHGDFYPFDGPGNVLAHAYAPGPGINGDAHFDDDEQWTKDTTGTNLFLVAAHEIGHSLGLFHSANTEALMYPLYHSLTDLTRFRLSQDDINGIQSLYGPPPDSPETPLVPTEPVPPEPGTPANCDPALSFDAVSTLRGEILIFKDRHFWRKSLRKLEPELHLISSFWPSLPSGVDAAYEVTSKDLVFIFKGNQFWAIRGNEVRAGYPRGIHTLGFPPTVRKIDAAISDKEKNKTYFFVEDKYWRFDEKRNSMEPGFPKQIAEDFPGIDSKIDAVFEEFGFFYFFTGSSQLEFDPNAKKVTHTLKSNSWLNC
Sequence of MMP8 (P22894 101-467, species assumed): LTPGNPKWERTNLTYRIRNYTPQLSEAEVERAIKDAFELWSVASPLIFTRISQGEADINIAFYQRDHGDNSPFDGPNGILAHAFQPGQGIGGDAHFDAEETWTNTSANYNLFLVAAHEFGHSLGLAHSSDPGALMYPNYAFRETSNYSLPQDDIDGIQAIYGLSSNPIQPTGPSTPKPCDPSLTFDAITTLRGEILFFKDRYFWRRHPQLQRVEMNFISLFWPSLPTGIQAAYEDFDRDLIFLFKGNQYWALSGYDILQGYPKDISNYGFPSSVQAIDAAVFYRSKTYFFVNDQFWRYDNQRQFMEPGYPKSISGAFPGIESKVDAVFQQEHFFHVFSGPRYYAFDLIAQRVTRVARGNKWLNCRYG
Sequence of MMP9 (P14780 94-707, species assumed): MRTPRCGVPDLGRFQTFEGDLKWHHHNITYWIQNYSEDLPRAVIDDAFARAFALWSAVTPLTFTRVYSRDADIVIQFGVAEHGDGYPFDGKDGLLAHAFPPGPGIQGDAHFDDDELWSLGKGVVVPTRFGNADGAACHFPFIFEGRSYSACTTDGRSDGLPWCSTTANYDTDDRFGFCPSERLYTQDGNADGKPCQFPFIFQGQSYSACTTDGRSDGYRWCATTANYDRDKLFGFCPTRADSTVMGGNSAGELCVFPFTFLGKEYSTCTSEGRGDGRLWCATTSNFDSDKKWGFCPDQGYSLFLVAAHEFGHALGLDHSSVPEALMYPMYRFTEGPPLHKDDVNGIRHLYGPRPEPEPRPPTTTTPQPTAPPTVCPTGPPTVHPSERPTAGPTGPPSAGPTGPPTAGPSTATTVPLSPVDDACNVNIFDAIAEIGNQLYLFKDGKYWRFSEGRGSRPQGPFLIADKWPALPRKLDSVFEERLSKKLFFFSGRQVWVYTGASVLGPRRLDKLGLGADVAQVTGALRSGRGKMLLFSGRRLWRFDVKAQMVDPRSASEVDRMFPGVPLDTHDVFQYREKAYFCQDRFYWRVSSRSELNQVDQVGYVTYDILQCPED
Sequence of MMP12 (P39900 106-470, species assumed): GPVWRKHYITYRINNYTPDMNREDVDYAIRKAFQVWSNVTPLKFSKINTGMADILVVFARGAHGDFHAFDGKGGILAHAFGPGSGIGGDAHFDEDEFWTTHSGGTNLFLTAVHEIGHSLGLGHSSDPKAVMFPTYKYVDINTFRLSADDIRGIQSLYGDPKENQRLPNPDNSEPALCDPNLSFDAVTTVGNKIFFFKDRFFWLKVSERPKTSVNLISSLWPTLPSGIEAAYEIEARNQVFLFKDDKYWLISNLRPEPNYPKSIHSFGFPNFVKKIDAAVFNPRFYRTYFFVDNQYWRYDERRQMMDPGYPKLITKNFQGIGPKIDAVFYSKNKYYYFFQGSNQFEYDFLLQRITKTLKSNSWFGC

Take `CC1(C)SCCN(S(=O)(=O)c2ccc(Oc3ccncc3)cc2)[C@H]1C(=O)NO` [Prinomastat]: the “inhibition of MMP14 (in words)” value on MMP14 was “specific selectivity”. In addition, at MMP3, the “inhibition of MMP3 (in words)” value is “specific selectivity”. For the same molecule, the “inhibition of MMP9 (in words)” value on MMP9 was “specific selectivity”.
The IC50 is the concentration at which inhibition is half-maximal. With `O=C1NC(=O)C(c2ccc(-c3ccccc3)cc2)(N2CCN(c3ccc([N+](=O)[O-])cc3)CC2)C(=O)N1` [Ro 28-2653], the IC50 on MMP8 (read-out: IC50 MMP8) was 15 nM; on MMP2 it was 7 to 246 nM; at MMP9 it was 12 to 23 nM.
As for `CCN(CC)Cc1cc(C)c(N(Cc2ccccc2)S(=O)(=O)c2ccc(OC)cc2)c(C(=O)NO)c1` [MMP9 inhibitor I], the IC50 at MMP1 is 1.05 nM.
With `C[C@H]1c2cccc(O)c2C(=O)C2=C(O)[C@]3(O)C(=O)C(C(N)=O)=C(O)[C@@H](N(C)C)[C@@H]3[C@@H](O)[C@@H]21` [Doxycycline], the IC50 at MMP7 was 28000 nM; at MMP8 (setting [2]), 26000 to 50000 nM; at MMP2, 56000 nM; on MMP3 it was 32000 nM; on MMP13 it was 2000 to 50000 nM; on MMP1 it was greater than 400000 nM.
What is called Ki is the equilibrium dissociation constant of an inhibitor or competing ligand from its target. Take `CCOCOCC(CC(C)C(=O)NO)NC(=O)c1ccc(Oc2ccccc2)cc1` (stereo not drawn) [ONO-4817]: the Ki was 2.5 nM at MMP7; 1.1 nM at MMP8; 0.73 nM on MMP2; 42 nM on MMP3; 1.1 nM on MMP13; 0.45 nM on MMP12. Also, the results for the IC50 at MMP9 and on MMP1 were 2.1 nM and 1.6 nM, respectively.
Take `CC1(C)NC(=O)N(C[C@@H](COc2ccc(-c3ccc(OC(F)(F)F)cc3)cc2)N(O)C=O)C1=O` [ABT-770]: on MMP2, the “inhibition of MMP2 (in words)” value is “inhibits”. For the same molecule, on MMP9, the “inhibition of MMP9 (in words)” value is reported as “inhibits”.
As to “7-dimethylamino-6-dimethyl-6-deoxytetracycline [Minocycline]”, the IC50 on MMP7 was 125000 nM; at MMP3 it was 290000 nM; at MMP9, 180000 nM. Also, at MMP2, the “inhibition of MMP2 (in words)” value is given as “effective for the inhibition”. The “inhibition of MMP1 (in words)” value on MMP1 is recorded as “effective for the inhibition”.
Turning to `CN1C(=O)N(C[C@H](C(=O)NO)[C@@H](CC2CCCC2)C(=O)N2CCCCC2)C(=O)C1(C)C` [Cipemastat], the “inhibition of MMP3 (in words)” value at MMP3 was “can inhibit”. The “inhibition of MMP9 (in words)” value at MMP9 was “can inhibit”. Besides, on MMP1, the “inhibition of MMP1 (in words)” value is listed as “can inhibit”.
Take `COc1ccc(S(=O)(=O)N(Cc2cccnc2)[C@@H](C(=O)NO)C(C)C)cc1.Cl` [MMI-270]: at MMP8, the “inhibition of MMP8 (in words)” value is given as “can inhibit”. Further, on MMP2, the “inhibition of MMP2 (in words)” value is reported as “can inhibit”. Also, the “inhibition of MMP9 (in words)” value at MMP9 is on record as “can inhibit”.
“TIMP-1: endogenous tissue inhibitor of metalloproteinases; extensively glycosylated protein with a molecular mass of 28.5 kDa”: the “inhibition of MMP8 (in words)” value in the data set with MMP8 is reported as “preferentially inhibits”. The “inhibition of MMPs in general (in words)” value with MMPs is “inhibit most MMPs (except MMP-2 and -14)”.
Turning to `CNC(=O)[C@@H](NC(=O)[C@H](CC(C)C)[C@H](O)C(=O)NO)C(C)(C)C` [Marimastat], at MMP14, the IC50 was 1.8 nM.
As for `NC(=O)C1=C(O)CC2CC3Cc4cccc(O)c4C(=O)C3=C(O)C2(O)C1=O` (stereo not drawn) [COL-3], the values for the IC50 on MMP8 (setting [2]), at MMP13 and on MMP1 were 129000 nM, 808 nM and 91600 nM, respectively.
Turning to `CNC(=O)[C@H](Cc1ccccc1)NC(=O)[C@H](CC(C)C)[C@H](CSc1cccs1)C(=O)NO` [Batimastat], the results for the IC50 at MMP7 and at MMP9 were 6 nM and 1 nM, respectively.
Take `O=C(NO)C1(CS(=O)(=O)c2ccc(Oc3ccc(Cl)cc3)cc2)CCOCC1` [RS 130830]: the “inhibition of MMP1 (in words)” value on MMP1 is reported as “suppress”.
`C=CCN(C(=O)CCC(=O)N(O)CC(C)C)C(Cc1ccccc1)C(=O)NC` (stereo not drawn) [BB-1101]: the IC50 on MMP7 is 60 nM; on MMP8 (setting [2]), 3 nM; on MMP2, 4 nM; on MMP14, 10 nM; on MMP3, 30 nM; on MMP9, 3 nM. The IC50 at MMP13 was 7 nM; at MMP1, 8 nM; at MMP12, 5 nM.
As to `CC(C)C[C@@H](NC(=O)[C@@H]1CCCN1C(=O)CNC(=O)c1ccc(N)cc1)C(=O)N[C@H](C)C(=O)NO` [FN-439, p-aminobenzoyl-Gly-Pro-D-Leu-D-Ala-NHOH] (H-[4Abz]GP[dL][dA]-{NHOH}), the IC50 at MMP8 (setting [2]) is 1000 nM; on MMP3, 150000 nM; on MMP9, 30000 nM; on MMP1 it was 1000 nM.
For `O=C(NO)C1(S(=O)(=O)c2ccc(Oc3ccc(Cl)cc3)cc2)CCN(Cc2ccccc2)CC1` [239796-97-5], the “inhibition of MMP1 (in words)” value on MMP1 was “suppress”.

B1: TIMP-3: endogenous tissue inhibitor of metalloproteinases, typically bound to the ECM (protein, UniProt P35625 24-211, looked up)
Metalloproteinase inhibitor 3: CTCSPSHPQDAFCNSDIVIRAKVVGKKLVKEGPFGTLVYTIKQMKMYRGFTKMPHVQYIHTEASESLCGLKLEVNKYQYLLTGRVYDGKMYTGLCNFVERWDQLTLSQRKGLNYRYHLGCNCKIKSCYYLPCFVTSKNECLWTDMLSNFGYPGYQSKHYACIRQKGGYCSWYRGWAPPDKSIINATDP
For B1, the “inhibition of MMP2 (in words)” value in the data set with MMP2 was “inhibits the activity”. Further, in the data set with MMP3, the “inhibition of MMP3 (in words)” value is “inhibits the activity”. The “inhibition of MMP9 (in words)” value in the data set with MMP9 is recorded as “inhibits the activity”. Besides, in data set [1], the “inhibition of TACE (in words)” value is listed as “normally inhibits”. The “inhibition of MMP13 (in words)” value with MMP13 is “inhibits the activity”. Also, the “inhibition of MMP1 (in words)” value in the data set with MMP1 was “inhibits the activity”.

B2: TIMP-4: endogenous tissue inhibitor of metalloproteinases, secreted predominantly in heart and brain tissue (protein, UniProt Q99727 30-224, looked up)
Metalloproteinase inhibitor 4: CSCAPAHPQQHICHSALVIRAKISSEKVVPASADPADTEKMLRYEIKQIKMFKGFEKVKDVQYIYTPFDSSLCGVKLEANSQKQYLLTGQVLSDGKVFIHLCNYIEPWEDLSLVQRESLNHHYHLNCGCQITTCYTVPCTISAPNECLWTDWLLERKLYGYQAQHYVCMKHVDGTCSWYRGHLPLRKEFVDIVQP
For B2, the “inhibition of MMP7 (in words)” value with MMP7 is recorded as “preferentially inhibits”. The “inhibition of MMP2 (in words)” value in the data set with MMP2 is listed as “preferentially inhibits”. For the same molecule, the “inhibition of MMPs in general (in words)” value in the data set with MMPs was “inhibits all known MMPs”.
